Converted amounts (≈) assume the structure as drawn.
Tests used:
[1] = human, in vivo; cited from earlier work
[2] = test system: SV40 DNA (Form I, negatively supercoiled); settings: comparison with compound 21; no own test described; cited from earlier work
[3] = human, in vivo; cited from earlier work; remark: listed apart in the source
Lambda DNA = assay: Ethidium bromide displacement, lambda DNA; assay type: binding; settings: 1 μM DNA, 1.26 μM ethidium bromide, pH 7.0, read-out: FI50, Lambda DNA
Description: (§1) A 10× Binding solution was prepared by combining 0.93 ml of an aqueous NaCl solution (5M), 2.0 ml of an aqueous Tris HCl (500 mM) solution, 0.1 ml of an EDTA solution (500 mM) and 46.97 ml of water. The resultant solution was 93 mM in NaCl, 20 mM in Tris HCl, and 1 mM in EDTA. Stock DNA solution were prepared as follows: Poly (dG·dC)-(dG·dC) (ε254=8.4/mM; 27-7910-02), poly(dA·dT)-(dA·dT) (ε262=6.6/mM; 27-7870-02), and lambda DNA (ε260-7.0/mM; 27-4111-01) were purchased from Pharmacia. Solutions were prepared by resuspending either poly (dG·dC)-(dG·dC) or poly(dA·dT)-(dA·dT)in 1 ml of 10× DNA Binding Solution. Lambda DNA is already in solution as purchased.
(§2) Poly (dG·dC)-(dG·dC), poly(dA·dt)-(dA·dt) and lambda DNA concentrations were determined as follows: 980 μl of 10× DNA Binding Solution was pipetted into a 1 ml cuvette. A blank was run on the UV spectrophotometer. 20 μl of the DNA stock of unknown concentration was then added into the cuvette. The sample was then scanned between 210 nm to 500 nm and the absorbance recorded at 254 nm for poly(dG·dC)-(dG·dC), at 262 nm for poly(dA·dT)-(dA·dT) and at 260 nm for lambda DNA. The solution was transferred to a clean tube. This procedure was followed for three different solutions with the absorbance taken as the average of the three. The concentration of poly(dG·dC)-(dG·dC) stock was calculated to be A254 /8.4×1000 (in μM). The concentration of poly(dA·dT)-(dA·dT) stock was calculated to be A262 /6.6×1000 (in μM). The concentration of lambda DNA stock was calculated to be A260 /7.0×1000 (in μM).
(§3) The binding of the bis-naphthalimides to DNA and to synthetic polynucleotide duplexes was determined by an ethidium bromide displacement assay that measures the reduction of fluorescence when ethidium bromide is displaced from DNA (Baguley, 1981). The fluorescence intensity of a 3 ml solution containing 9.3 mM NaCl, 2 mM Tris-HCl (pH 7.0), 100 μM EDTA, 1 μM DNA (in nucleotides) and 1.26 μM ethidium bromide in a quartz cuvette was measured at the excitation (546 nm) and emission (600 nm) wavelengths on a Shimadzu RF5000U spectrofluorometer. Graded concentrations of agent were then added and the fluorescence intensity was measured. The concentration of compound required to reduce the fluorescence intensity by 50% of that of control (FI50) was determined. Therefore, the lower the FI50 the stronger the binding affinity a particular compound has for DNA.
(§4) The ability of bis-naphthalimides of the present invention and the known anti-cancer agents compound 22 and DMP840, (R,R)-2,2'[1,2-ethanediylbis[imino(1-methyl-2,1-ethanediyl)]]-bis[5-nitro- 1H benz[de]isoquinoline-1,3-(2H)dione]dimethanesulfonate, to bind to DNA and to synthetic oligonucleotide duplexes was measured using an ethidium bromide displacement assay. Ethidium bromide, a known DNA intercalator, has no fluorescence in the absence of DNA; however, fluorescence intensity increases when ethidium bromide binds to DNA. The ethidium bromide displacement assay measures the decrease in fluorescence intensity caused by DNA-bound ethidium bromide with DNA interacting agents.

[4] = test system: Murine B16 melanoma cell line; assay: In vitro growth inhibition (MTT), B16 melanoma; assay type: cell-based; settings: for IC50: Mus musculus, B16, 72 h, MTT, 3 days
Excerpt: (§5) P388 murine leukemic cell line was obtained from the DCT Tumor Repository (National Cancer Institute, Frederick Cancer Research and Development, Frederick Md. 21702). HT29 Human Colon Carcinoma cell line was obtained from the American Type Culture Collection (12301 Parklawn Drive, Rockville, Md. 20852). B16 Melanoma cell line was obtained from DuPont Merck Pharmaceutical Company (Glenolden, Pa. 19036). MCF-7 Human Breast Carcinoma cell line was a gift from Dr. K. Osborne (Department of Medicine, The University of Texas Health Science Center at San Antonio, San Antonio, Tex. 78284). All cell lines were incubated at 37° C. in a humidified atmosphere of 5% CO2 -95% air. Murine B16 melanoma cell line was grown in RPMI 1640 medium supplemented with 10% heat-inactivated fetal bovine serum, 2 mM L-glutamine, 50 units/ml penicillin, 50 μg/ml streptomycin, 25 μg/ml gentamycin, 0.75% sodium bicarbonate, 10 mM HEPES buffer (pH 7.4), and 0.06 mg/ml AntiPPLO. Murine P388 leukemic and the human HT-29 colon adenocarcinoma cell lines were maintained in RPMI 1640 medium supplemented with 10% heat-inactivated fetal bovine serum. MCF-7M human breast adenocarcinoma was maintained in IMEM medium supplemented with 5% non heat-inactivated fetal bovine serum and 1 nM insulin.
(§6) Exponentially growing cells (1-2×10^3 cells, unless specified otherwise) in 0.1 ml medium were seeded on day 0 in a 96-well microtiter plate. On day 1, 0.1 ml aliquots of medium containing graded concentrations of test compounds were added in duplicate to the cell plates. After incubation at 37° C. in a humidified incubator for 3 days (P388, B16) or 6 days (HT-29, MCF-7M), the plates were centrifuged briefly and 100 μl of the growth medium was removed. Cell cultures were incubated with 50 μl of 3-(4,5-dimethylthiazol-2-yl)-2,5-diphenyl-tetrazolium bromide [MTT, 1 mg/ml in Dulbecco's phosphate buffered saline (PBS)] for 4 hr at 37° C. The resulting purple formazan precipitate was solubilized with 200 μl of 0.04N HCl in isopropyl alcohol. Absorbance was monitored in a BioRad Model 3550 Microplate Reader at a test wavelength of 570 nm and a reference wavelength of 630 nm. The absorbance was transferred to a PC 486 computer. The IC50 values were determined by a computer program (EZ-ED50) that fit all of the data to the following four-parameterlogistic equation:
(§7) Y=((Am -Ao)/(1+(X/IC50)^n))+Ao
(§8) where Am is the absorbance of control cells, Ao is the absorbance of cells in the presence of highest agent concentration, Y is the observed absorbance, X is the agent concentration, IC50 is the concentration of agent that inhibits the cell growth by 50% of control cells (based on the absorbance) and n is the slope of the curve.

B16 murine melanoma = assay: B16 melanoma in vivo, survival of B6D2F1 mice; settings: q.d. × 5, i.p.; for T/C: mean survival treated/control
Description: B6D2F1 mice received i.p. inocula of B16 murine melanoma brei prepared from B16 tumors growing subcutaneously in mice (day 0). On day 1, rumored mice were treated with drugs or vehicle control; the route of drug administration and schedule were selected as appropriate for the study in question. If dosing information for agents was not available, the maximum tolerated dose (MTD) was determined in initial dose finding experiments in non-tumored mice. In a typical experiment, drugs were given at their MTD and 1/2 MTD doses i.p. on a daily×5 schedule.
The mean survival times of all groups were calculated, and results were expressed as mean survival of treated mice/mean survival of control mice (T/C)×100%. A T/C value of 150 means that the mice in the treated group lived 50% longer than those of the control group; this is sometimes referred to as the increase in life space, or ILS value.
Mice that survived for 60 days were considered long term survivors, or cures, in the B16 model. The universally accepted cut-off for activity in this model, which has been used for years by the National Cancer Institute, is T/C=125.
Statistics were performed on the data using primarily the log rank p-value test.

[5] = test system: P388 murine leukemic cell line; assay: In vitro growth inhibition (MTT), P388 leukemia; assay type: cell-based; settings: Mus musculus, P388, 72 h, 3 days
Excerpt: as §5, §6, §7, §8

[6] = test system: MCF-7 Human Breast Carcinoma cell line; assay: In vitro growth inhibition (MTT), MCF-7 breast carcinoma; assay type: cell-based; settings: Homo sapiens, MCF7, 144 h, 6 days
Excerpt: as §5, §6, §7, §8

[7] = test system: poly (dG.dC) - poly (dG.dC); assay: Ethidium bromide displacement, poly(dG.dC)-poly(dG.dC); assay type: binding; settings: for Ratio (AT/GC): FI50 poly(dA.dT)-poly(dA.dT) / FI50 poly(dG.dC)-poly(dG.dC); for IC50: ethidium bromide displacement, 1 μM DNA, 1.26 μM ethidium bromide, pH 7.0, read-out: FI50, poly (dG.dC) - poly (dG.dC)
Description: as §1, §2, §3, §4

[8] = test system: MX-1 human breast carcinoma; settings: in vivo; cited from earlier work
LX-1 lung carcinoma = settings: in vivo; cited from earlier work
[9] = test system: DLD-2 human colon adenocarcinoma; settings: in vivo; cited from earlier work
[10] = in vivo; cited from earlier work
[11] = test system: solid tumor xenografts, human and murine leukemia, doxorubicin resistant cell lines, colon carcinoma cells; settings: cited from earlier work
[12] = biological target: poly (dA.dT) - poly (dA.dT); assay: Ethidium bromide displacement, poly(dA.dT)-poly(dA.dT); assay type: binding; settings: 1 μM DNA, 1.26 μM ethidium bromide, pH 7.0, read-out: FI50, poly (dA.dT) - poly (dA.dT)
Description: as §1, §2, §3, §4

[13] = cited from earlier work
B16 melanoma = settings: cited from earlier work
DNA = assay: Ethidium bromide displacement, DNA binding in general
Description: as §3
as §4, with “The ethidium bromide displacement assay measures the decrease in fluorescence intensity caused by DNA-bound ethidium bromide with DNA interacting agents.” left out

topoisomerase II = settings: cited from earlier work

COc1cccc2c1C(=O)c1c(O)c3c(c(O)c1C2=O)C[C@@](O)(C(=O)CO)C[C@@H]3O[C@H]1C[C@H](N)[C@H](O)[C@H](C)O1 [Doxorubicin]
cardiomyopathy (in words) [1]: unusual cardiomyopathy

COc1cccc2c1C(=O)c1c(O)c3c(c(O)c1C2=O)C[C@@](O)(C(C)=O)C[C@@H]3O[C@H]1C[C@H](N)[C@H](O)[C@H](C)O1 [daunorubicin]
cardiomyopathy (in words) [1]: unusual cardiomyopathy

N.N.[Cl][Pt][Cl] [Cisplatin]
effect on DNA conformation (in words) [2]: does not show such an effect and causes unwinding only after prolonged incubation

COc1cc(NS(C)(=O)=O)ccc1Nc1c2ccccc2nc2ccccc12 [amsacrine]
clinical anti-tumor activity (in words) [3]: exhibit clinical anti-tumor activity

O=C1c2c(O)cccc2-c2nn(CCNCCO)c3ccc(NCCNCCO)c1c23 [DuP 941]
clinical anti-tumor activity (in words) [3]: exhibit clinical anti-tumor activity

C[C@H](CNCCNC[C@@H](C)N1C(=O)c2cccc3cc([N+](=O)[O-])cc(c23)C1=O)N1C(=O)c2cccc3cc([N+](=O)[O-])cc(c23)C1=O [DMP840, (R,R)-2,2'[1,2-ethanediylbis[imino (1-methyl-2,1-ethanediyl)]]-bis[5-nitro-1H-benz[de]isoquinoline-1,3-(2H)-dione]dimethanesulfonate]
IC50 (Lambda DNA): 73 nM
IC50 [4]: 27 nM
60-Day Survivors (B16 murine melanoma; 5 mg/kg): 0
Wt. Ch. (%) (Day 7) (B16 murine melanoma; 5 mg/kg): +4.6%
T/C (B16 murine melanoma; 5 mg/kg): 156%
60-Day Survivors (B16 murine melanoma; 10 mg/kg): 0
Wt. Ch. (%) (Day 7) (B16 murine melanoma; 10 mg/kg): -0.33%
T/C (B16 murine melanoma; 10 mg/kg): 179%
IC50 [5]: 6 nM
IC50 [6]: 7 nM
Ratio (AT/GC) [7]: 35.2
IC50 [7]: 92 nM
anti-tumor activity, MX-1 (in words) [8]: anti-tumor efficacy in vivo
anti-tumor efficacy, LX-1 (in words) (LX-1 lung carcinoma): anti-tumor efficacy in vivo
anti-tumor activity, DLD-2 (in words) [9]: anti-tumor efficacy in vivo
irreversible toxicities (in words) [10]: no irreversible toxicities
anti-tumor efficacy in vivo (in words) [11]: anti-tumor efficacy in vivo
IC50 [12]: 3280 nM
water solubility [13]: 3400 µg/mL (≈ 5.44 mM)

CS(=O)(=O)O.O=C1c2cccc3cc([N+](=O)[O-])cc(c23)C(=O)N1CCCCNCCCN1C(=O)c2cccc3cc([N+](=O)[O-])cc(c23)C1=O [XB596]
activity against B16 melanoma (in words) (B16 melanoma): ineffective against B16 melanoma
anti-tumor activity, MX-1 (in words) [8]: demonstrated in vivo anti-tumor activity
anti-tumor activity, DLD-2 (in words) [9]: demonstrated in vivo anti-tumor activity
water solubility [13]: 45 µg/mL

O=C1c2cccc3cc([N+](=O)[O-])cc(c23)C(=O)N1CCOCCOCCN1C(=O)c2cccc3cc([N+](=O)[O-])cc(c23)C1=O [Compound 19, 5-[2-(3-Nitronaphthalene-1,8-dicarboximido)ethoxy]-1-(3-nitronaphthalene-1,8-dicarboximido)-3-oxapentane]
IC50 (Lambda DNA): 56000 nM
anticancer activity against B16 melanoma in vitro (in words) [4]: potent anticancer activity against this melanoma type
IC50 [4]: 51 nM
Ratio (AT/GC) [7]: 1.7
IC50 [7]: 49000 nM
DNA binding (in words) (DNA): did not bind to DNA
IC50 [12]: 83000 nM

CN(C)CCN1C(=O)c2cccc3cc(N)cc(c23)C1=O [amonafide]
inhibition of topoisomerase II (in words) (topoisomerase II): inhibit topoisomerase II

From patent US5561042A, “Diamine platinum naphthalimide complexes as antitumor agents” (Cancer Therapy and Research Center, priority 1995, dated 1996)
